Source: patent US6015838A, “Aqueous film-forming foam compositions” (3M Innovative Properties Company, priority 1996, dated 2000)

Test: Surface tension and critical micelle concentration (CMC) of aqueous surfactant solutions
Assay type: physicochemical
Conditions: Table 3; deionized water
From the text: Critical Micelle Concentration (CMC): The critical micelle concentration is defined as the concentration at which further surface tension is no longer lowered with increasing levels of surfactant. […] Surface tension is then plotted vs. log concentration and the data points are connected. The resulting curve has a nearly horizontal flat portion at concentrations above the CMC and has a negative steep slope at concentrations below the CMC. The CMC is defined as the lowest surfactant concentration in the horizontal flat portion of the curve.
(§1) Then the critical micelle concentration (CMC) was determined for each surfactant.
as §1

| Compound | CMC | solubility |
| --- | --- | --- |
| O=C([O-])CC[N+]1(CCCNC(=O)C(F)(C(F)(F)F)C(F)(F)C(F)(F)C(F)(F)C(F)(F)C(F)(F)C(F)(F)C(F)(F)F)CCOCC1 (stereo not drawn) [Example K3] | 1000 ppm | – |
| O=C(NCCC[N+]1(CCO)CCOCC1)C(F)(C(F)(F)F)C(F)(F)C(F)(F)C(F)(F)C(F)(F)C(F)(F)C(F)(F)C(F)(F)F (stereo not drawn) [Example F5] | 1000 ppm | – |
| C[N+](C)([O-])CCCNC(=O)C(F)(C(F)(F)C(F)(F)C(F)(F)F)C(F)(F)C(F)(F)C(F)(F)C(F)(F)C(F)(F)C(F)(F)C(F)(F)F (stereo not drawn) [Example E7, C7 F15 CF(C3 F7)CONH(CH2)3 N^+ (CH3)2 O^-] | – | low solub. |
| O=C(NCCC[N+]1([O-])CCOCC1)C(F)(C(F)(F)F)C(F)(F)C(F)(F)C(F)(F)C(F)(F)C(F)(F)C(F)(F)C(F)(F)F (stereo not drawn) [Example E9] | – | low solub. |

Same assay, conditions: Table 3; deionized water, at CMC

| Compound | Surf Tens. (surface tension at the CMC) |
| --- | --- |
| C[N+](C)(CCCN(CCC[N+](C)(C)CCC(=O)[O-])C(=O)C(F)(C(F)(F)F)C(F)(F)C(F)(F)C(F)(F)C(F)(F)C(F)(F)C(F)(F)C(F)(F)F)CCC(=O)[O-] (stereo not drawn) [Example K4] | 23.6 dynes/cm |
| C[N+](C)([O-])CCCNC(=O)C(F)(C(F)(F)F)C(F)(F)C(F)(F)C(F)(F)C(F)(F)C(F)(F)C(F)(F)F (stereo not drawn) [Example E3, C6 F13 CF(CF3)CONH(CH2)3 N^+ (CH3)2 O^-] | 16.6 dynes/cm |
| C[N+](C)([O-])CCCNC(=O)C(F)(C(F)(F)F)C(F)(F)C(F)(F)C(F)(F)C(F)(F)C(F)(F)C(F)(F)C(F)(F)F (stereo not drawn) [Example E1, C7 F15 CF(CF3)CONH(CH2)3 N^+ (CH3)2 O^-] | 16.3 dynes/cm |
| O=C(OCCc1cccc[n+]1[O-])C(F)(C(F)(F)F)C(F)(F)C(F)(F)C(F)(F)C(F)(F)C(F)(F)C(F)(F)F (stereo not drawn) [Example E12] | 18.3 dynes/cm |
| C[N+](C)([O-])CCCN(CCO)C(=O)C(F)(C(F)(F)F)C(F)(F)C(F)(F)C(F)(F)C(F)(F)C(F)(F)C(F)(F)C(F)(F)F (stereo not drawn) [Example E8, C7 F15 CF(CF3)CON(C2 H4 OH)(CH2)3 N^+ (CH3)2 O^-] | 16.6 dynes/cm |
| C[n+]1ccc(C(=O)NCCOC(=O)C(F)(C(F)(F)F)C(F)(F)C(F)(F)C(F)(F)C(F)(F)C(F)(F)C(F)(F)C(F)(F)F)cc1 (stereo not drawn) [Example F1] | 15.0 dynes/cm |
| O=C(NCCOC(=O)C(F)(C(F)(F)F)C(F)(F)C(F)(F)C(F)(F)C(F)(F)C(F)(F)C(F)(F)F)c1cc[n+]([O-])cc1 (stereo not drawn) [Example E11] | 15.5 dynes/cm |
| O=C([O-])CC[N+]1(CCCNC(=O)C(F)(C(F)(F)F)C(F)(F)C(F)(F)C(F)(F)C(F)(F)C(F)(F)C(F)(F)C(F)(F)F)CCOCC1 (stereo not drawn) [Example K3] | 19.2 dynes/cm |
| C[n+]1ccc(C(=O)NCCOC(=O)C(F)(C(F)(F)F)C(F)(F)C(F)(F)C(F)(F)C(F)(F)C(F)(F)C(F)(F)F)cc1 (stereo not drawn) [Example F2] | 15.5 dynes/cm |
| O=C(OCCc1cccc[n+]1[O-])C(F)(C(F)(F)F)C(F)(F)C(F)(F)C(F)(F)C(F)(F)C(F)(F)C(F)(F)C(F)(F)F (stereo not drawn) [Example E13] | 15.0 dynes/cm |
| C[N+](C)(CCO)CCCNC(=O)C(F)(C(F)(F)F)C(F)(F)C(F)(F)C(F)(F)C(F)(F)C(F)(F)C(F)(F)C(F)(F)F (stereo not drawn) [Example F4] | 19.0 dynes/cm |
| C[N+](C)(CCCNC(=O)C(F)(C(F)(F)F)C(F)(F)C(F)(F)C(F)(F)C(F)(F)C(F)(F)C(F)(F)C(F)(F)F)CCC(=O)[O-] (stereo not drawn) [Example K1, C7 F15 CF(CF3)CONH(CH2)3 N^+ (CH3)2 C2 H4 COO^-] | 16.6 dynes/cm |
| C[N+](C)([O-])CCCNC(=O)C(F)(C(F)(F)F)C(F)(F)C(F)(F)C(F)(F)C(F)(F)C(F)(F)C(F)(F)C(F)(F)C(F)(F)C(F)(F)C(F)(F)F (stereo not drawn) [Example E5, C10 F21 CF(CF3)CONH(CH2)3 N^+ (CH3)2 O^-] | 17.1 dynes/cm |
| O=C(NCCC[N+]1(CCO)CCOCC1)C(F)(C(F)(F)F)C(F)(F)C(F)(F)C(F)(F)C(F)(F)C(F)(F)C(F)(F)C(F)(F)F (stereo not drawn) [Example F5] | 20.8 dynes/cm |
| O=C(NCCOC(=O)C(F)(C(F)(F)F)C(F)(F)C(F)(F)C(F)(F)C(F)(F)C(F)(F)C(F)(F)C(F)(F)F)c1cc[n+]([O-])cc1 (stereo not drawn) [Example E10] | 14.5 dynes/cm |
| C[N+](C)([O-])CCCNC(=O)C(F)(C(F)(F)F)C(F)(F)C(F)(F)C(F)(F)C(F)(F)C(F)(F)C(F)(F)C(F)(F)C(F)(F)F (stereo not drawn) [Example E4, C8 F17 CF(CF3)CONH(CH2)3 N^+ (CH3)2 O^-] | 16.5 dynes/cm |
| CN(C)CCCN(CCCN(C)C)C(=O)C(F)(C(F)(F)F)C(F)(F)C(F)(F)C(F)(F)C(F)(F)C(F)(F)C(F)(F)C(F)(F)F (stereo not drawn) [Example F9, C7 F15 CF(CF3)CON[C3 H6 N^+ (CH3)2 H]2 2[^- OOCCH3]] | 22.0 dynes/cm |
| C8 F17 CF(CF3)CO(OCH2 CH2)16 OCH3 [Example J1] | 22 dynes/cm |
| C[N+](C)([O-])CCCNC(=O)C(F)(C(F)(F)F)C(F)(F)C(F)(F)C(F)(F)C(F)(F)C(F)(F)F (stereo not drawn) [Example E2, C5 F11 CF(CF3)CONH(CH2)3 N^+ (CH3)2 O^-] | 17.5 dynes/cm |
| C6 F13 CF(CF3)CON(C3 H6 SO3^-)(CH2)3 N^+ (CH3)2 H [Example K2] | 20.3 dynes/cm |
| C[N+](C)(CCO)CCCNC(=O)C(F)(C(F)(F)F)C(F)(F)C(F)(F)C(F)(F)C(F)(F)C(F)(F)F (stereo not drawn) [Example F3] | 17.0 dynes/cm |

Same assay, conditions: Table 5; deionized water, at CMC

| Compound | Surf. Tens. (surface tension at the CMC) |
| --- | --- |
| O=C(O)C(F)(C(F)(F)F)C(F)(F)C(F)(F)C(F)(F)C(F)(F)C(F)(F)C(F)(F)C(F)(F)F (stereo not drawn) [Example M27, C7 F15 CF(CF3)COO^- Li^+] | 24.1 dynes/cm |
| O=C(O)C(F)(C(F)(F)F)C(F)(F)C(F)(F)C(F)(F)C(F)(F)C(F)(F)C(F)(F)F (stereo not drawn) [Example M25, C6 F13 CF(CF3)COO^- Na^+] | 19.8 dynes/cm |
| O=C(O)C(F)(C(F)(F)F)C(F)(F)C(F)(F)C(F)(F)C(F)(F)C(F)(F)C(F)(F)F (stereo not drawn) [Example M22, C6 F13 CF(CF3)COO^- K^+] | 17.5 dynes/cm |
| O=C(O)C(F)(C(F)(F)F)C(F)(F)C(F)(F)C(F)(F)C(F)(F)C(F)(F)C(F)(F)C(F)(F)C(F)(F)F (stereo not drawn) [Example M24, C8 F17 CF(CF3)COO^- K^+] | 16.4 dynes/cm |
| O=C(O)C(F)(C(F)(F)F)C(F)(F)C(F)(F)C(F)(F)C(F)(F)C(F)(F)C(F)(F)C(F)(F)F (stereo not drawn) [Example M26, C7 F15 CF(CF3)COO^- Na^+] | 19.4 dynes/cm |
| O=C(O)C(F)(C(F)(F)F)C(F)(F)C(F)(F)C(F)(F)C(F)(F)C(F)(F)C(F)(F)C(F)(F)F (stereo not drawn) [Example M23, C7 F15 CF(CF3)COO^- K^+] | 15.0 dynes/cm |
| O=C(O)C(F)(C(F)(F)F)C(F)(F)C(F)(F)C(F)(F)C(F)(F)C(F)(F)C(F)(F)C(F)(F)F (stereo not drawn) [Example M30, C7 F15 CF(CF3)COO^- 1/2[H3 N^+ C2 H4 NHC2 H4 N^+ H3]] | 16.2 dynes/cm |
| O=C(O)C(F)(C(F)(F)F)C(F)(F)C(F)(F)C(F)(F)C(F)(F)C(F)(F)C(F)(F)C(F)(F)F (stereo not drawn) [Example M20, C7 F15 CF(CF3)COO^- H3 N^+ C2 H4 OH] | 15.0 dynes/cm |
